From article PMC5469750, “Antibacterial and detoxifying activity of NZ17074 analogues with multi-layers of selective antimicrobial actions against Escherichia coli and Salmonella enteritidis” (Scientific Reports, 2017)
In brackets after ≈: the same amount, converted by molar mass. Where a SMILES comes first, the peptide text is derived from it. Bridges are numbered along the chain shown (N, C = ends).

Columns and labels:
[1] = test system: Salmonella typhimurium ATCC14028; type: cell-based; settings: ATCC14028
Procedure: (§1) The antimicrobial activity of peptides was determined by the microbroth dilution method. The bacterial strains were incubated in Mueller-Hinton (MH) medium at 37 °C overnight until the mid-log phase (OD600 nm reading of 0.5). Bacteria were diluted to 1 × 10^5 CFU/ml and added into 96-well plates, followed by the addition of serial dilutions of peptides (from 0.0625 to 128 μg/ml). The plates were incubated at 37 °C for 18–24 h. The MIC value was determined as the lowest peptide concentration at which no bacterial growth was observed. All tests were conducted in triplicate.

[2] = test system: Staphylococcus aureus ATCC43300; type: cell-based; settings: ATCC43300
Procedure: as §1

[3] = test system: Enterococcus faecium CMCC1.2136; type: cell-based; settings: CMCC1.2136
Procedure: as §1

S. pullorum CVCC1802 = type: cell-based; settings: CVCC1802
Procedure: as §1

[4] = test system: Pseudomonas aeruginosa CICC10419; type: cell-based; settings: CICC10419
Procedure: as §1

S. suis CVCC606 = type: cell-based
Procedure: as §1

[5] = test system: Listeria ivanovii ATCC19119; type: cell-based; settings: ATCC19119
Procedure: as §1

[6] = test system: Bacillus subtilis ATCC6633; type: cell-based; settings: ATCC6633
Procedure: as §1

S. pullorum CVCC1789 = type: cell-based; settings: CVCC1789
Procedure: as §1

Escherichia coli CVCC195 = type: cell-based; settings: CVCC195
Procedure: as §1

S. enteritidis CVCC3377 = type: cell-based, Salmonella enteritidis; settings: CVCC3377
Procedure: as §1

[7] = test system: Candida albicans CGMCC2.2411; type: cell-based; settings: CGMCC2.2411
P. aeruginosa CICC21630 = type: cell-based, Pseudomonas aeruginosa; settings: CICC21630
Procedure: as §1

E. coli CVCC1515 = type: cell-based, Escherichia coli; settings: CVCC1515
Procedure: as §1

S. aureus ATCC25923 = type: cell-based, Staphylococcus aureus; settings: ATCC25923
Procedure: as §1

S. choleraesuis CVCC503 = type: cell-based; settings: CVCC503
Procedure: as §1

SMILES	MIC [1] [µg/mL]	MIC [2] [µg/mL]	MIC [3] [µg/mL]	MIC (S. pullorum CVCC1802) [µg/mL]	MIC [4] [µg/mL]	MIC (S. suis CVCC606) [µg/mL]	MIC [5] [µg/mL]	MIC [6] [µg/mL]	MIC (S. pullorum CVCC1789) [µg/mL]	MIC (Escherichia coli CVCC195) [µg/mL]	MIC (S. enteritidis CVCC3377) [µg/mL]	MIC [7] [µg/mL]	MIC (P. aeruginosa CICC21630) [µg/mL]	MIC (E. coli CVCC1515) [µg/mL]	MIC (S. aureus ATCC25923) [µg/mL]	MIC (S. choleraesuis CVCC503) [µg/mL]
CC(C)[C@@H]1NC(=O)CNC(=O)[C@H](CC(N)=O)NC(=O)[C@H](CCCNC(=N)N)NC(=O)[C@H](Cc2ccc(O)cc2)NC(=O)[C@H](C(C)C)NC(=O)[C@@H]2CSSC[C@H](NC(=O)[C@H](C(C)C)NC(=O)[C@H](CCCNC(=N)N)NC1=O)C(=O)N[C@@H](Cc1c[nH]cn1)C(=O)N[C@@H](CCCNC(=N)N)C(=O)N[C@@H](CCCNC(=N)N)C(=O)N[C@H](C(=O)N[C@@H](CC(N)=O)C(=O)O)CSSC[C@H](NC(=O)[C@H](Cc1ccccc1)NC(=O)CN)C(=O)N[C@@H](CCCCN)C(=O)N[C@@H](C)C(=O)N[C@@H](C(C)C)C(=O)N2 [N3] (H-GFCKAVCVYRNGVRVCHRRCN-OH; disulfide 3-20, 7-16)	4 (≈ 1.64 µM)	>16	8 (≈ 3.28 µM)	1 (≈ 0.41 µM)	>16	16 (≈ 6.57 µM)	8 (≈ 3.28 µM)	2 (≈ 0.821 µM)	2 (≈ 0.821 µM)	1 (≈ 0.41 µM)	0.5 (≈ 0.205 µM)	>16	16 (≈ 6.57 µM)	1 (≈ 0.41 µM)	0.25 (≈ 0.103 µM)	
CC(C)[C@@H]1NC(=O)CNC(=O)[C@H](CC(N)=O)NC(=O)[C@H](CCCNC(=N)N)NC(=O)[C@H](Cc2ccc(O)cc2)NC(=O)[C@H](C(C)C)NC(=O)[C@@H]2CSSC[C@H](NC(=O)[C@H](C(C)C)NC(=O)[C@H](CCCNC(=N)N)NC1=O)C(=O)N[C@@H](Cc1c[nH]cn1)C(=O)N[C@@H](CCCNC(=N)N)C(=O)N[C@@H](CCCNC(=N)N)C(=O)N[C@H](C(=O)N[C@@H](CC(N)=O)C(=O)O)CSSC[C@H](NC(=O)[C@H](Cc1ccccc1)NC(=O)CNC(=O)[C@@H](N)Cc1c[nH]c3ccccc13)C(=O)N[C@@H](Cc1c[nH]c3ccccc13)C(=O)N[C@@H](CC(N)=O)C(=O)N[C@@H](C(C)C)C(=O)N2 [N4] (H-WGFCWNVCVYRNGVRVCHRRCN-OH; disulfide 4-21, 8-17)	2 (≈ 0.734 µM)	8 (≈ 2.94 µM)		2 (≈ 0.734 µM)				1 (≈ 0.367 µM)	1 (≈ 0.367 µM)	1 (≈ 0.367 µM)	0.25 (≈ 0.0918 µM)		4 (≈ 1.47 µM)	1 (≈ 0.367 µM)	1 (≈ 0.367 µM)	
CC(C)[C@@H]1NC(=O)CNC(=O)[C@H](CC(N)=O)NC(=O)[C@H](CCCNC(=N)N)NC(=O)[C@H](Cc2ccc(O)cc2)NC(=O)[C@H](C(C)C)NC(=O)[C@H](C)NC(=O)[C@H](C(C)C)NC(=O)[C@H](CC(N)=O)NC(=O)[C@H](Cc2c[nH]c3ccccc23)NC(=O)[C@@H](NC(=O)[C@H](Cc2ccccc2)NC(=O)CN)CSSC[C@@H](C(=O)N[C@@H](CC(N)=O)C(=O)O)NC(=O)[C@H](CCCNC(=N)N)NC(=O)[C@H](CCCNC(=N)N)NC(=O)[C@H](Cc2c[nH]cn2)NC(=O)[C@H](C)NC(=O)[C@H](C(C)C)NC(=O)[C@H](CCCNC(=N)N)NC1=O [N7] (H-GFCWNVAVYRNGVRVAHRRCN-OH; disulfide 3-20)	8 (≈ 3.23 µM)	>64	2 (≈ 0.808 µM)	4 (≈ 1.62 µM)	>64	8 (≈ 3.23 µM)	2 (≈ 0.808 µM)	2 (≈ 0.808 µM)	4 (≈ 1.62 µM)	2 (≈ 0.808 µM)	0.5 (≈ 0.202 µM)	>16	>64	2 (≈ 0.808 µM)	0.5 (≈ 0.202 µM)	16 (≈ 6.46 µM)
